Where two headings read alike, the source gives them in different places.
Assays:
[1] = system: HT/92/599 clinical subtype B HIV-1; assay: HIV-1 reverse transcriptase activity following infection in fresh human PBMCs; format: cell-based; conditions: seven days; for EC50: read-out: PBMC/HIV-1HT/92/599 EC50; for EC90: read-out: PBMC/HIV-1HT/92/599 EC90
Procedure: Fresh human peripheral blood mononuclear cells (PBMCs) obtained from a commercial source were purified following centrifugation using a Ficoll-Hypaque density gradient. Viable cells were induced to proliferate in the presence of PHA-P and recombinant human IL-2 for 72 hours. PBMCs pooled from three donors were cultured with test compounds in the presence of the HT/92/599 clinical subtype B HIV-1 for seven days, followed by measurement of reverse transcriptase activity in cell supernatants using a radioactive incorporation polymerization assay. […] Incorporation of TTP into DNA was monitored by spotting the reaction mixture onto a DEAE filter mat, followed by washes with 5% phosphate buffer, distilled water, and 70% ethanol, and subsequent drying of the mat. Radioactivity was measured using a Wallac 1450 Microbeta Trilux liquid scintillation counter using Opti-Fluor O. Test compound-associated toxicity was measured in PBMCs cultured for seven days in the absence of virus using XTT reagent. EC50 and EC90 values were calculated as the protease inhibitor concentration leading to 50% and 90% reduction in […], respectively, compared to virus-infected cells without protease inhibitor. TC50 values were calculated as the protease inhibitor concentration leading to 50% cell death in the absence of viral infection. A value for Therapeutic Index (TI) was calculated as TC50/EC50.

[2] = Pharmacokinetics of released PEGylated protease inhibitor following P.O. administration of prodrugs in rats; format: in vivo, male Sprague-Dawley rats; set-up: AUCall Mean: concentration or dose not given beside the values; C24 Mean: unit not given here; conditions: rats (n = 4-5); for C24 Mean: concentration at 24 hours
In short: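 Prodrugs given orally to male Sprague-Dawley rats, with serial blood via jugular catheter into K2EDTA. Plasma levels of test article or released PEGylated inhibitor measured by LC-MS/MS. PK parameters from noncompartmental analysis.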

CEM-SS cells = format: cell-based
Procedure: (§1) To evaluate whether the protease inhibitors described herein retain the ability to protect against HIV-1 infection, CEM-SS cells infected with the RF strain of HIV-1 were treated with test compounds for six days, and then cell viability was monitored using the tetrazolium dye XTT. Infection studies were performed and EC50 values were calculated as the protease inhibitor concentration leading to 50% reduction in cell death compared to virus-infected cells without protease inhibitor. TC50 values were calculated as the protease inhibitor concentration leading to 50% cell death in the absence of viral infection. A value for Therapeutic Index (TI) was calculated as TC50/EC50.

HIV-1RF = assay: Cytoprotection in CEM-SS cells infected with HIV-1RF (XTT); format: cell-based; conditions: CEM-SS cells infected with RF strain of HIV-1, six days
Procedure: as §1

[3] = system: human peripheral blood mononuclear cells (PBMCs); format: cell-based
Procedure: Fresh human peripheral blood mononuclear cells (PBMCs) obtained from a commercial source were purified following centrifugation using a Ficoll-Hypaque density gradient. Viable cells were induced to proliferate in the presence of PHA-P and recombinant human IL-2 for 72 hours. PBMCs pooled from three donors were cultured with test compounds in the presence of the HT/92/599 clinical subtype B HIV-1 for seven days, followed by measurement of reverse transcriptase activity in cell supernatants using a radioactive incorporation polymerization assay. Cell supernatant containing HIV-1 viral was incubated for 90 minutes at 37° C. with a reaction mixture containing EGTA, Triton X-100, Tris (pH 7.4), DTT, MgCl2, poly rA, oligo dT, and tritiated thymidine triphosphate (TTP). Incorporation of TTP into DNA was monitored by spotting the reaction mixture onto a DEAE filter mat, followed by washes with 5% phosphate buffer, distilled water, and 70% ethanol, and subsequent drying of the mat. Radioactivity was measured using a Wallac 1450 Microbeta Trilux liquid scintillation counter using Opti-Fluor O. Test compound-associated toxicity was measured in PBMCs cultured for seven days in the absence of virus using XTT reagent. EC50 and EC90 values were calculated as the protease inhibitor concentration leading to 50% and 90% reduction in […], respectively, compared to virus-infected cells without protease inhibitor. TC50 values were calculated as the protease inhibitor concentration leading to 50% cell death in the absence of viral infection. A value for Therapeutic Index (TI) was calculated as TC50/EC50.

[4] = Pharmacokinetics of PEGylated protease inhibitor prodrugs in rats; format: in vivo, male Sprague-Dawley rats; set-up: AUCall / AUC: concentration or dose not given beside the values; conditions: prodrug in plasma; for AUCall / Cmax / AUC: mean ± SD; for concentration at 24 hr: read-out: Cmin(24 hr); for half-life: read-out: t½(z) (converted)
In short: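 Male Sprague-Dawley rats dosed; serial blood drawn via jugular vein catheters into K2EDTA and processed to plasma. Test article or released PEGylated molecule quantified by LC-MS/MS; Cmax, AUCall, T½ and MRTlast estimated noncompartmentally.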

[5] = mPEG6-atazanavir in plasma after PO administration of mPEG6-ATV or of the listed prodrug
[6] = mPEG3-atazanavir in plasma after PO administration of mPEG3-ATV or of the listed prodrug
[7] = mPEG5-atazanavir in plasma after PO administration of mPEG5-ATV or of the listed prodrug
[8] = male, Sprague-Dawley, rat, in vivo
[9] = male, Sprague-Dawley, rat, in vivo, 24 hr
[10] = male, Sprague-Dawley, rat, in vivo, read-out: Cmax

CCCCCCCCCCCCCCCCOCC(COP(=O)(O)OC(CN(Cc1ccc(-c2ccccn2)cc1)NC(=O)C(NC(=O)OC)C(C)(C)C)C(Cc1ccccc1)NC(=O)C(NC(=O)OCCOCCOCCOCCOCCOCCOC)C(C)(C)C)OC (stereo not shown) [mPEG6-Atazanavir-monophospholipid, mPEG6-atazanavir monophospholipid]
EC50 [1]: 12.4 µM | EC90 [1]: 26.3 µM | AUCall Mean [2, 5]: 0.108 ng·h/mL | Cmax Mean [2, 5]: 0.432 ng/mL | MRT last Mean [2, 5]: 0.250 h | Tmax Median [2, 5]: 0.250 h | CC50 (CEM-SS cells): 12.6 µM | EC50 (HIV-1RF): 14.2 µM | CC50 [3]: 37.6 µM

CCCCCCCCCCCCCCCCOCC(COP(=O)(O)OC(CN(Cc1ccc(-c2ccccn2)cc1)NC(=O)C(NC(=O)OC)C(C)(C)C)C(Cc1ccccc1)NC(=O)C(NC(=O)OCCOCCOCCOCCOCCOC)C(C)(C)C)OC (stereo not shown) [mPEG5-Atazanavir-monophospholipid]
EC50 [1]: 12.3 µM | EC90 [1]: 26.8 µM | CC50 (CEM-SS cells): 12 µM | CEM-SS/HIV-1RF EC50 (HIV-1RF): no EC50 value could be determined | EC50 (HIV-1RF): > 200 µM | CC50 [3]: 17.1 µM

CCCCCCCCCCCCCCCCOCC(COP(=O)(O)OC(CN(Cc1ccc(-c2ccccn2)cc1)NC(=O)C(NC(=O)OC)C(C)(C)C)C(Cc1ccccc1)NC(=O)C(NC(=O)OCCOCCOCCOC)C(C)(C)C)OC (stereo not shown) [mPEG3-Atazanavir-monophospholipid]
EC50 [1]: 0.97 µM | EC90 [1]: 2.52 µM | CC50 (CEM-SS cells): 14.2 µM | EC50 (HIV-1RF): 0.35 µM | CC50 [3]: 43.7 µM

CCOC(=O)OC(CN(Cc1ccc(-c2ccccn2)cc1)NC(=O)C(NC(=O)OC)C(C)(C)C)C(Cc1ccccc1)NC(=O)C(NC(=O)OCCOCCOCCOC)C(C)(C)C (stereo not shown) [mPEG3-atazanavir ethyl carbonate, mPEG3-Atazanavir Ethyl Carbonate]
C24 Mean [2, 6]: 1.42 | AUCall Mean [2, 6]: 199 ng·h/mL | Cmax Mean [2, 6]: 17.9 ng/mL | MRT last Mean [2, 6]: 15.5 h | Tmax* Median [2, 6]: 1.00 h | MRTlast [4]: 3.12 ± 0.285 h | t½(z) [4]: 6.56 ± 5.13 h | Cmin(24 hr) ([4]; 24 hr): 2.42 ± 1.20 ng/mL | AUCall [4]: 4960 ± 442 ng·h/mL | Cmax [4]: 1190 ± 294 ng/mL

mPEG3-atazanavir-ethoxy-CME-Leu-Leu [mPEG-3-Atazanavir-Ethoxy-CM-Leu-Leu]
AUCall Mean [2, 6]: 148 ng·h/mL | Cmax Mean [2, 6]: 6.42 ng/mL | MRT last Mean [2, 6]: 16.5 h | Tmax* Median [2, 6]: 9.00 h | MRTlast [4]: 1.01 ± 0.095 h | t½(z) [4]: 1.21 NC^ hr | AUCall [4]: 8.27 ± 3.06 ng·h/mL | Cmax [4]: 2.95 ± 1.30 ng/mL

COCCOCCOCCOCCOCCOC(=O)N[C@H](C(=O)N[C@@H](Cc1ccccc1)[C@H](CN(Cc1ccc(-c2ccccn2)cc1)NC(=O)[C@@H](NC(=O)OC)C(C)(C)C)OC(=O)[C@H](CC(C)C)NC(=O)[C@@H](N)CC(C)C)C(C)(C)C.Cl [Leu-Leu-mPEG5-Atazanavir HCl, Leu-Leu-mPEG5-Atazanavir Hydrochloride]
C24 Mean [2, 7]: 2.98 | AUCall Mean [2, 7]: 118 ng·h/mL | Cmax Mean [2, 7]: 14.1 ng/mL | MRT last Mean [2, 7]: 10.7 h | Tmax Median [2, 7]: 0.750 h | MRT last [4, 8]: 3.59 ± 3.27 h | concentration at 24 hr [4, 9]: 0.201 ± 0.401 ng/mL | AUC [4, 8]: 24.9 ± 6.24 ng·h/mL | Cmax [4, 10]: 7.21 ± 0.417 ng/mL | half-life [4, 8]: 3.6 ± 2.59 h

COCCOCCOCCOC(=O)NC(C(=O)NC(Cc1ccccc1)C(CN(Cc1ccc(-c2ccccn2)cc1)NC(=O)C(NC(=O)OC)C(C)(C)C)OC(=O)COCCOC(=O)C(Cc1ccccc1)NC(=O)C(N)Cc1ccccc1)C(C)(C)C.Cl (stereo not shown) [mPEG3-atazanavir-CME-phe-phenylalanine, mPEG3-Atazanavir-CME-PhePhenylalanine]
AUCall Mean [2, 6]: 120 ng·h/mL | Cmax Mean [2, 6]: 6.26 ng/mL | MRT last Mean [2, 6]: 16.2 h | Tmax* Median [2, 6]: 1.25 h | MRTlast [4]: 0.696 ± 0.381 h | AUCall [4]: 0.919 ± 0.968 ng·h/mL | Cmax [4]: 0.772 ± 0.253 ng/mL

COCCOCCOCCOC(=O)N[C@H](C(=O)N[C@@H](Cc1ccccc1)[C@H](CN(Cc1ccc(-c2ccccn2)cc1)NC(=O)[C@@H](NC(=O)OC)C(C)(C)C)OC(=O)[C@H](Cc1ccccc1)NC(=O)[C@@H](N)CC(C)C)C(C)(C)C.Cl [Leu-Phe-mPEG3-Atazanavir, Leu-Phe-mPEG3-Atazanavir Hydrochloride]
C24 Mean [2, 6]: 2.35 | AUCall Mean [2, 6]: 448 ng·h/mL | Cmax Mean [2, 6]: 84.9 ng/mL | MRT last Mean [2, 6]: 7.56 h | Tmax* Median [2, 6]: 2.00 h | MRT last [4, 8]: 3.42 ± 0.916 h | concentration at 24 hr [4, 9]: 0.154 ± 0.307 ng/mL | AUC [4, 8]: 157 ± 30.3 ng·h/mL | Cmax [4, 10]: 41.9 ± 7.92 ng/mL | half-life [4, 8]: 3.2 ± 0.981 h

Methoxyacetate Ester-mPEG5-Atazanavir
AUCall Mean [2, 7]: 298 ng·h/mL | Cmax Mean [2, 7]: 38.7 ng/mL | MRT last Mean [2, 7]: 5.81 h | Tmax Median [2, 7]: 1.50 h | MRTlast [4]: 5.81 ± 2.95 h | t½(z) [4]: 6.30 ± 2.06 h | AUCall [4]: 298 ± 121 ng·h/mL | Cmax [4]: 38.7 ± 13.8 ng/mL
